# Results published in patent US12528801B2 (Givaudan SA, priority 2019, dated 2026).
# Target: T1, hTRPM8 (Homo sapiens, UniProt Q7Z2W7)
# T1 construct: expressed in transfected cells
# Test: Assay on TRPM8 modulators: calcium imaging (Fluo-4, Flexstation) in HEK293 cell line stably expressing hTRPM8
# Type: cell-based
# Settings: HEK293 cells stably expressing hTRPM8; calcium influx, Fluo-4, Flexstation 3; sigmoidal dose-response fit
# Experimental: A HEK293 cell line stably expressing hTRPM8 was generated according to Klein of at, (Chem. Senses 36: […], 2011) and receptor activation was monitored by calcium imaging in a Flexstation. For Ca-imaging assays of TRPM8 channel activation, cells were seeded on day 0 at a density of 12000 cells per well in Dulbecco's modified Eagle medium (DMEM) containing 9% foetal bovine serum in black, clear bottom 96-well plates that had been coated with 0.001% polyethyleneimine (molecular weight=60 000, Acros Organics). On day 2, agonists were evaluated via calcium imaging using Fluo-4. Briefly, growth medium was discarded, and the cells were incubated in the dark for 1 h at 37° C. in 50 μL loading buffer consisting of 2.7 μM Fluo-4 AM (Invitrogen) and […] probenecid (Sigma-Aldrich) in DMEM (without serum). After incubation, the plates were washed five times with 100 μL of assay buffer (in mM: 130 NaCl, 5 KCl, 10 HEPES, 2 CaCl2, and 10 glucose, pH7.4.) and further incubated in the dark at room temperature for 30 min. The cells were then washed five times with 100 μL assay buffer and then calcium influx to serial dilutions of inventive compounds were measured in a Flexstation 3 (Molecular Devices). Receptor activation was initiated following addition of 20 μl of a 10-fold concentrated ligand stock solution, which is also prepared in assay buffer. Fluorescence was continuously monitored for 15 seconds prior to ligand addition and for 105 seconds after ligand addition, for a total of 120 seconds. Maximal receptor activation in relation to solvent control and relative to 31.6 μM menthol is determined. Data from serial dilutions were processed with a KNIME workflow to fit a sigmoidal dose-response curve and to extrapolate […].
# T1 sequence (Q7Z2W7 whole entry): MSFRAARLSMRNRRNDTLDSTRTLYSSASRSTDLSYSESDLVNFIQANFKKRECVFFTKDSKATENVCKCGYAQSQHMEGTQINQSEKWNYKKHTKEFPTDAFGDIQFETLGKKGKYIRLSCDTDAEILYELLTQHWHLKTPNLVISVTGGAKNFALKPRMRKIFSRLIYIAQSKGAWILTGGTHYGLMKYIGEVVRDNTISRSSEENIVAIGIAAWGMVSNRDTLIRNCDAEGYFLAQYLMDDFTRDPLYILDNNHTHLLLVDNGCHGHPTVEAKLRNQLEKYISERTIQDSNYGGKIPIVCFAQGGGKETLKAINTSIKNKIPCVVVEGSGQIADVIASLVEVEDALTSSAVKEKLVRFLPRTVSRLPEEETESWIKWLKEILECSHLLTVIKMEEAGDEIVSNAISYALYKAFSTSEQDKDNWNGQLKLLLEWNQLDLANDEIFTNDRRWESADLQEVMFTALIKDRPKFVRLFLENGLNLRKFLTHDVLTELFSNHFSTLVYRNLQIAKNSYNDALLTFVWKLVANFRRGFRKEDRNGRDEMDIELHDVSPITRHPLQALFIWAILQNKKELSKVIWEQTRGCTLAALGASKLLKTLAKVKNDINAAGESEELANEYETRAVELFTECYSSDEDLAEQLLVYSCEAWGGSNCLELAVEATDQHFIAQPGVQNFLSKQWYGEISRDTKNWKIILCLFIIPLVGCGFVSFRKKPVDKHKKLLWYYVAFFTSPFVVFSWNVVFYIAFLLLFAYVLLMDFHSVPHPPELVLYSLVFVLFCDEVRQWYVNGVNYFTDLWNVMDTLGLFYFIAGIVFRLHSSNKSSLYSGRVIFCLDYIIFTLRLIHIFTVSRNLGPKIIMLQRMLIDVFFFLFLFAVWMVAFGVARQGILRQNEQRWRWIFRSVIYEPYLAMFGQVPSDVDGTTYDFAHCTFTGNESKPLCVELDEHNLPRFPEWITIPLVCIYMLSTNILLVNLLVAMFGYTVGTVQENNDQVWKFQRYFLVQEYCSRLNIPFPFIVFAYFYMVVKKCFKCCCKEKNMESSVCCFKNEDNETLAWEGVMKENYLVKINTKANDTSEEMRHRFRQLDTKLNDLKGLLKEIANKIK
row,SMILES,EC50 [nM]
1,"CSC(C)C(=O)N1CCCCC1c1nc(-c2ccc(O)cc2)c[nH]1 (stereo not drawn) [Compound 39, 1-(2-(4-(4-hydroxyphenyl)-1H-imidazol-2-yl)piperidin-1-yl)-2-(methylthio)propan-1-one]",< 50
2,"CSC(C)C(=O)N1CCCCC1c1nc(-c2ccc(C(C)C)cc2)c[nH]1 (stereo not drawn) [Compound 40, 1-(2-(4-(4-isopropylphenyl)-1H-imidazol-2-yl)piperidin-1-yl)-2-(methylthio)propan-1-one]",< 50
3,"CSC(C)C(=O)N1CCCCC1c1nc(-c2ccc(C)c(C(F)(F)F)c2)c[nH]1 (stereo not drawn) [Compound 41, 1-(2-(4-(4-methyl-3-(trifluoromethyl)phenyl)-1H-imidazol-2-yl)piperidin-1-yl)-2-(methylthio)propan-1-one]",50 to 300
4,"CSC(C)C(=O)N1CCCCC1c1nc(-c2ccc(CN(C)C)s2)c[nH]1 (stereo not drawn) [Compound 42, 1-(2-(4-(5-((dimethylamino)methyl)thiophen-2-yl)-1H-imidazol-2-yl)piperidin-1-yl)-2-(methylthio)propan-1-one]",1000 to 35000
5,"CSC(C)C(=O)N1CCCCC1c1nc(-c2cncc(C)c2)c[nH]1 (stereo not drawn) [Compound 44, 1-(2-(4-(5-methylpyridin-3-yl)-1H-imidazol-2-yl)piperidin-1-yl)-2-(methylthio)propan-1-one]",50 to 300
6,"CSC(C)C(=O)N1CCCCC1c1nc(-c2ccc3ccsc3c2)c[nH]1 (stereo not drawn) [Compound 46, 1-(2-(4-(benzo[b]thiophen-6-yl)-1H-imidazol-2-yl)piperidin-1-yl)-2-(methylthio)propan-1-one]",< 50
7,"CCCC(=O)N1CCCCC1c1nc(-c2ccccc2)c[nH]1 (stereo not drawn) [Compound 49, 1-(2-(4-phenyl-1H-imidazol-2-yl)piperidin-1-yl)butan-1-one]",300 to 1000
8,"C=CCCC(=O)N1CCCCC1c1nc(-c2ccccc2)c[nH]1 (stereo not drawn) [Compound 51, 1-(2-(4-phenyl-1H-imidazol-2-yl)piperidin-1-yl)pent-4-en-1-one]",300 to 1000
9,"CSC(C)C(=O)N1CCCCC1c1ncc(-c2cccc(F)c2F)[nH]1 (stereo not drawn) [Compound 53, 1-(2-(5-(2,3-difluorophenyl)-1H-imidazol-2-yl)piperidin-1-yl)-2-(methylthio)propan-1-one]",50 to 300
10,"CSC(C)C(=O)N1CCCCC1c1ncc(-c2ccc(F)cc2F)[nH]1 (stereo not drawn) [Compound 54, 1-(2-(5-(2,4-difluorophenyl)-1H-imidazol-2-yl)piperidin-1-yl)-2-(methylthio)propan-1-one]",< 50
11,"CSC(C)C(=O)N1CCCCC1c1ncc(-c2cc(F)ccc2F)[nH]1 (stereo not drawn) [Compound 55, 1-(2-(5-(2,5-difluorophenyl)-1H-imidazol-2-yl)piperidin-1-yl)-2-(methylthio)propan-1-one]",< 50
12,"COc1ccc(-c2cnc(C3CCCCN3C(=O)C(C)SC)[nH]2)c(F)c1 (stereo not drawn) [Compound 56, 1-(2-(5-(2-fluoro-4-methoxyphenyl)-1H-imidazol-2-yl)piperidin-1-yl)-2-(methylthio)propan-1-one]",< 50
13,"COc1ncc(-c2cnc(C3CCCCN3C(=O)C(C)SC)[nH]2)cn1 (stereo not drawn) [Compound 58, 1-(2-(5-(2-methoxypyrimidin-5-yl)-1H-imidazol-2-yl)piperidin-1-yl)-2-(methylthio)propan-1-one]",300 to 1000
14,"CNc1cccc(-c2cnc(C3CCCCN3C(=O)C(C)SC)[nH]2)c1 (stereo not drawn) [Compound 59, 1-(2-(5-(3-(methylamino)phenyl)-1H-imidazol-2-yl)piperidin-1-yl)-2-(methylthio)propan-1-one]",50 to 300
15,"C=CC(C)C(=O)N1CCCCC1c1ncc(-c2ccc(F)c(F)c2)[nH]1 (stereo not drawn) [Compound 61, 1-(2-(5-(3,4-difluorophenyl)-1H-imidazol-2-yl)piperidin-1-yl)-2-methylbut-3-en-1-one]",< 50
16,"CSC(C)C(=O)N1CCCCC1c1ncc(-c2ccc(C)c(C)c2)[nH]1 (stereo not drawn) [Compound 63, 1-(2-(5-(3,4-dimethylphenyl)-1H-imidazol-2-yl)piperidin-1-yl)-2-(methylthio)propan-1-one]",< 50
17,"CSC(C)C(=O)N1CCCCC1c1ncc(-c2cccc(F)c2)[nH]1 (stereo not drawn) [Compound 66, 1-(2-(5-(3-fluorophenyl)-1H-imidazol-2-yl)piperidin-1-yl)-2-(methylthio)propan-1-one]",< 50
18,"COc1nscc1-c1cnc(C2CCCCN2C(=O)C(C)SC)[nH]1 (stereo not drawn) [Compound 67, 1-(2-(5-(3-methoxyisothiazol-4-yl)-1H-imidazol-2-yl)piperidin-1-yl)-2-(methylthio)propan-1-one]",1000 to 35000
19,"COc1cccc(-c2cnc(C3CCCCN3C(=O)C(C)SC)[nH]2)c1 (stereo not drawn) [Compound 68, 1-(2-(5-(3-methoxyphenyl)-1H-imidazol-2-yl)piperidin-1-yl)-2-(methylthio)propan-1-one]",50 to 300
20,"CNCc1ccc(-c2cnc(C3CCCCN3C(=O)C(C)SC)[nH]2)cc1 (stereo not drawn) [Compound 69, 1-(2-(5-(4-((methylamino)methyl)phenyl)-1H-imidazol-2-yl)piperidin-1-yl)-2-(methylthio)propan-1-one]",1000 to 35000
21,"CSC(C)C(=O)N1CCCCC1c1ncc(-c2ccc(CN)cc2)[nH]1 (stereo not drawn) [Compound 71, 1-(2-(5-(4-(aminomethyl)phenyl)-1H-imidazol-2-yl)piperidin-1-yl)-2-(methylthio)propan-1-one]",< 50
22,"CSC(C)C(=O)N1CCCCC1c1ncc(-c2ccc(N(C)C)cc2)[nH]1 (stereo not drawn) [Compound 72, 1-(2-(5-(4-(dimethylamino)phenyl)-1H-imidazol-2-yl)piperidin-1-yl)-2-(methylthio)propan-1-one]",50 to 300
23,"CSC(C)C(=O)N1CCCCC1c1ncc(-c2ccc(CO)cc2)[nH]1 (stereo not drawn) [Compound 73, 1-(2-(5-(4-(hydroxymethyl)phenyl)-1H-imidazol-2-yl)piperidin-1-yl)-2-(methylthio)propan-1-one]",300 to 1000

# The remaining lines, values ahead:
row,EC50 [nM],SMILES
1,< 50,"CSC(C)C(=O)N1CCCCC1c1nc(-c2ccc(F)cc2)c[nH]1 (stereo not drawn) [Compound 38, 1-(2-(4-(4-fluorophenyl)-1H-imidazol-2-yl)piperidin-1-yl)-2-(methylthio)propan-1-one]"
2,< 50,"CSC(C)C(=O)N1CCCCC1c1nc(-c2ccc(C)o2)c[nH]1 (stereo not drawn) [Compound 43, 1-(2-(4-(5-methylfuran-2-yl)-1H-imidazol-2-yl)piperidin-1-yl)-2-(methylthio)propan-1-one]"
3,< 50,"CSC(C)C(=O)N1CCCCC1c1nc(-c2ccc(C)nc2)c[nH]1 (stereo not drawn) [Compound 45, 1-(2-(4-(6-methylpyridin-3-yl)-1H-imidazol-2-yl)piperidin-1-yl)-2-(methylthio)propan-1-one]"
4,50 to 300,"CSC(C)C(=O)N1CCCCC1c1nc(C)c(-c2ccccc2)[nH]1 (stereo not drawn) [Compound 47, 1-(2-(4-methyl-5-phenyl-1H-imidazol-2-yl)piperidin-1-yl)-2-(methylthio)propan-1-one]"
5,1000 to 35000,"O=C(CSC(F)(F)F)N1CCCCC1c1nc(-c2ccccc2)c[nH]1 (stereo not drawn) [Compound 48, 1-(2-(4-phenyl-1H-imidazol-2-yl)piperidin-1-yl)-2-((trifluoromethyl)thio)ethan-1-one]"
6,1000 to 35000,"C=CC=CCC(=O)N1CCCCC1c1nc(-c2ccccc2)c[nH]1 (stereo not drawn) [Compound 50, 1-(2-(4-phenyl-1H-imidazol-2-yl)piperidin-1-yl)hexa-3,5-dien-1-one]"
7,1000 to 35000,"CCC(=O)N1CCCCC1c1nc(-c2ccccc2)c[nH]1 (stereo not drawn) [Compound 52, 1-(2-(4-phenyl-1H-imidazol-2-yl)piperidin-1-yl)propan-1-one]"
8,< 50,"CSC(C)C(=O)N1CCCCC1c1ncc(-c2ccc(C)cc2F)[nH]1 (stereo not drawn) [Compound 57, 1-(2-(5-(2-fluoro-4-methylphenyl)-1H-imidazol-2-yl)piperidin-1-yl)-2-(methylthio)propan-1-one]"
9,< 50,"CSC(C)C(=O)N1CCCCC1c1ncc(-c2ccc(F)c(F)c2)[nH]1 (stereo not drawn) [Compound 60, 1-(2-(5-(3,4-difluorophenyl)-1H-imidazol-2-yl)piperidin-1-yl)-2-(methylthio)propan-1-one]"
10,1000 to 35000,"COc1ccc(-c2cnc(C3CCCCN3C(=O)C(C)SC)[nH]2)cc1OC (stereo not drawn) [Compound 62, 1-(2-(5-(3,4-dimethoxyphenyl)-1H-imidazol-2-yl)piperidin-1-yl)-2-(methylthio)propan-1-one]"
11,50 to 300,"COCc1ccc(-c2cnc(C3CCCCN3C(=O)C(C)SC)[nH]2)cc1F (stereo not drawn) [Compound 64, 1-(2-(5-(3-fluoro-4-(methoxymethyl)phenyl)-1H-imidazol-2-yl)piperidin-1-yl)-2-(methylthio)propan-1-one]"
12,< 50,"CSC(C)C(=O)N1CCCCC1c1ncc(-c2ccc(C)c(F)c2)[nH]1 (stereo not drawn) [Compound 65, 1-(2-(5-(3-fluoro-4-methylphenyl)-1H-imidazol-2-yl)piperidin-1-yl)-2-(methylthio)propan-1-one]"
13,50 to 300,"COCCc1ccc(-c2cnc(C3CCCCN3C(=O)C(C)SC)[nH]2)cc1 (stereo not drawn) [Compound 70, 1-(2-(5-(4-(2-methoxyethyl)phenyl)-1H-imidazol-2-yl)piperidin-1-yl)-2-(methylthio)propan-1-one]"
